The target of one data set is T1, full-length human sEH (Homo sapiens, UniProt P34913).
T1 sequence (P34913 1-555): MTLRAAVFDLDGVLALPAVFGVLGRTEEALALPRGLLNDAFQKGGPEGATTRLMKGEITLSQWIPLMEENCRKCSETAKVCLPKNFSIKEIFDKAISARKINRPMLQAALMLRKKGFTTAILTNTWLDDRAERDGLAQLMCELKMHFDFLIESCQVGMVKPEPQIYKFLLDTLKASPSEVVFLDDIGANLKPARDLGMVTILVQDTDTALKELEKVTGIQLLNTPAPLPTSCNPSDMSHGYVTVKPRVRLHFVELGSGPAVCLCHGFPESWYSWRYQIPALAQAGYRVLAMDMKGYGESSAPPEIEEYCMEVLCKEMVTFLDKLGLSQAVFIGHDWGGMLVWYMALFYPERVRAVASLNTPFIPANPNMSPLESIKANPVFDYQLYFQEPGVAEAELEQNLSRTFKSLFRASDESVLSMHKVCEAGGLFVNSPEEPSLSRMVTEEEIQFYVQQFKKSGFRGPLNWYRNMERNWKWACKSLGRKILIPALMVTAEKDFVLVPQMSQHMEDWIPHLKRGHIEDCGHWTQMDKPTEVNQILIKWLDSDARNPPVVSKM
The data set is described as follows: DiFMUP-based phosphatase assay, full-length sEH. Conditions: DiFMUP substrate.

Data set [1] concerns the target T2, recombinant sEH-P domain (N-terminal domain of sEH) (Homo sapiens, UniProt P34913).
T2 sequence (P34913 1-222): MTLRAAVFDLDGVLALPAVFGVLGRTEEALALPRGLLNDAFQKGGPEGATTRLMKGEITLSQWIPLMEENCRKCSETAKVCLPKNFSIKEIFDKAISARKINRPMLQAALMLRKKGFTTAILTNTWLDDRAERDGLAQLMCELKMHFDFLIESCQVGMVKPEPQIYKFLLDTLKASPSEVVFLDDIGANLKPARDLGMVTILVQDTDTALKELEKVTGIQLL
As to the kind of experiment: FDP-based phosphatase assay, isolated sEH-P domain. It counts as biochemical. Conditions: FDP substrate, recombinant sEH-P domain.

For a further data set, the target named is T3, LXRα (Homo sapiens, UniProt Q13133).
T3 sequence (Q13133 209-447 limits assumed): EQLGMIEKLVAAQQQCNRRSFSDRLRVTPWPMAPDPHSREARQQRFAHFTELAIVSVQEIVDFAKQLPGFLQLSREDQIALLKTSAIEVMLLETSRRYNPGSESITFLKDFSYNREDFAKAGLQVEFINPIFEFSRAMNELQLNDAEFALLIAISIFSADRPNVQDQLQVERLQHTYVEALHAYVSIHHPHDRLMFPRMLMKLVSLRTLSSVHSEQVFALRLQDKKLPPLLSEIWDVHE
The data set is described as follows: Gal4 hybrid reporter gene assay in HEK293T cells. Format: cell-based. Conditions: at 10 μM; reference T0901317 1 μM. In general terms: In a reporter assay the amount or activity of a reporter protein is the signal.

The target of data set [2] is T4, N-terminal domain of sEH (sEH-P) (Homo sapiens, UniProt P34913).
T4 sequence (P34913 2-224): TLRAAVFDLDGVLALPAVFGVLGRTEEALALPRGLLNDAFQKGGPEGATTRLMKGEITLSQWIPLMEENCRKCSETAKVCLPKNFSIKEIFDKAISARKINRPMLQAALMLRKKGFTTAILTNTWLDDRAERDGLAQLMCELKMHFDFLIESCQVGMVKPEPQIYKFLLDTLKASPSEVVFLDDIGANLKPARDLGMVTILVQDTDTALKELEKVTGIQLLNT
The data set is described as follows: Differential scanning fluorimetry. Format: binding. Conditions: inhibitor 50 μM. Background: Differential scanning fluorimetry follows unfolding on heating by fluorescence.

Another data set has as its target T5, FXR (Homo sapiens, UniProt Q96RI1).
T5 sequence (Q96RI1 262-486 limits assumed): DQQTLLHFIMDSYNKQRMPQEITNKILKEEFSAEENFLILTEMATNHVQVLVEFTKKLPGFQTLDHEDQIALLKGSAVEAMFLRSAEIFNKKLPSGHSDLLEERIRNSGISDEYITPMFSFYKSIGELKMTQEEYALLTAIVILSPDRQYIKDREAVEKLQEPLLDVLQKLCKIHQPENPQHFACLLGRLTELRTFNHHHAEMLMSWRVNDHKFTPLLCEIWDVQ
As to the kind of experiment: Gal4 hybrid reporter gene assay in HEK293T cells. It counts as cell-based. Conditions: at 10 μM; reference GW4064 1 μM.

The target in a further data set is T6, PPARα (Homo sapiens, UniProt Q07869).
T6 sequence (Q07869 239-466 limits assumed): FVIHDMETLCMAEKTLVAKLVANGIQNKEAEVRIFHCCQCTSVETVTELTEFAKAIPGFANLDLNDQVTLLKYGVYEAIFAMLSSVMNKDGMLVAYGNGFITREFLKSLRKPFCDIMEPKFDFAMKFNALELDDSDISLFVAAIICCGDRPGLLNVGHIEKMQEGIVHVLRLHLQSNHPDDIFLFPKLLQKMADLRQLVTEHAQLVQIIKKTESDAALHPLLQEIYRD
As to the kind of experiment: Gal4 hybrid reporter gene assay in HEK293T cells. Format: cell-based. Conditions: at 10 μM; reference GW7647 1 μM.

The test system of a further data set is sEH-H. As to the kind of experiment: Epoxy fatty acid/diol ratios in rat plasma by LC-MS/MS. Format: in vivo. Conditions: rat plasma 8 h after 30 mg/kg p.o., vs vehicle.
In data set [3] the target is T7, isolated N-terminal domain of sEH (sEH-P) (Homo sapiens, UniProt P34913).
T7 sequence (P34913 1-222): T2 sequence (P34913 1-222)
As to the kind of experiment: DiFMUP-based phosphatase assay, isolated N-terminal domain. Conditions: DiFMUP substrate.

The target of another data set is T8, LXRβ (Homo sapiens, UniProt P55055).
T8 sequence (P55055 222-460 limits assumed): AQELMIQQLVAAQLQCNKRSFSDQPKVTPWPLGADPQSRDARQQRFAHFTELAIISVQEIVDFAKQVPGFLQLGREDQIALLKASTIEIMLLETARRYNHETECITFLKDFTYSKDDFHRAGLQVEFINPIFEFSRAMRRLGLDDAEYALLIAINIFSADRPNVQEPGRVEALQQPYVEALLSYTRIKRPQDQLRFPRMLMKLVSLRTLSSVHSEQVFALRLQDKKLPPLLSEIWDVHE
The data set is described as follows: Gal4 hybrid reporter gene assay in HEK293T cells. It counts as cell-based. Conditions: at 10 μM; reference T0901317 1 μM.

Data set [4] deals with T9, C-terminal domain of sEH (sEH-H) (Homo sapiens, UniProt P34913).
T9 sequence (P34913 235-555 limits assumed): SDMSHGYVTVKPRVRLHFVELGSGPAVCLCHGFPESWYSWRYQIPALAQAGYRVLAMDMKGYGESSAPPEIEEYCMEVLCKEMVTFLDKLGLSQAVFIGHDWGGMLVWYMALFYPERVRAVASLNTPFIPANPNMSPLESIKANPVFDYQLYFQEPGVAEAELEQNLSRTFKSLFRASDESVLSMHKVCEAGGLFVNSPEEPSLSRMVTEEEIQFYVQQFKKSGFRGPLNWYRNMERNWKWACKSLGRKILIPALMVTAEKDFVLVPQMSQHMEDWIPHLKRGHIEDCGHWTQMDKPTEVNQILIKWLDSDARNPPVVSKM
The data set is described as follows: Differential scanning fluorimetry. Format: binding. Conditions: inhibitor 50 μM.

Data set [5] in a line: Pharmacokinetic study in male Sprague-Dawley rats. Format: in vivo, rat. Conditions: 30 mg/kg p.o., male SD rats.
The next data set addresses T10, PPARβ/δ (Homo sapiens, UniProt Q03181).
T10 sequence (Q03181 211-439 limits assumed): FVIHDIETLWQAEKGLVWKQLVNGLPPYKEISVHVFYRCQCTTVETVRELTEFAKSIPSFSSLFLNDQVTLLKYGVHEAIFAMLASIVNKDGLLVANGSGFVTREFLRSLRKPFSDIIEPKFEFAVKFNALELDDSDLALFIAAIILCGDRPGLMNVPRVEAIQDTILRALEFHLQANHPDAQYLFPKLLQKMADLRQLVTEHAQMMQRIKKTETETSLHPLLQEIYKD
As to the kind of experiment: Gal4 hybrid reporter gene assay in HEK293T cells. Format: cell-based. Conditions: at 10 μM; reference L165,041 1 μM.

Data set [6] deals with T11, human fl sEH (sEH-H activity) (Homo sapiens, UniProt P34913).
T11 sequence (P34913 1-555): T1 sequence (P34913 1-555)
As to the kind of experiment: PHOME-based hydrolase assay, full-length human sEH. Format: biochemical.

A further data set has as its target T12, PPARγ (Homo sapiens, UniProt P37231).
T12 sequence (P37231 238-503 limits assumed): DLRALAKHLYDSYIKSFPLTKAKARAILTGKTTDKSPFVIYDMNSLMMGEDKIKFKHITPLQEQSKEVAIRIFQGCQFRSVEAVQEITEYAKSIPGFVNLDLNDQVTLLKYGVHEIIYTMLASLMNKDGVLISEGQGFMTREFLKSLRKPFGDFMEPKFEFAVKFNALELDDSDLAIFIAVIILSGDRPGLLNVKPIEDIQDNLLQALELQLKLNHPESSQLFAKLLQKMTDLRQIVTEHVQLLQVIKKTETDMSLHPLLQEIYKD
As to the kind of experiment: Gal4 hybrid reporter gene assay in HEK293T cells. Format: cell-based. Conditions: at 10 μM; reference pioglitazone 1 μM.

Structures are written as SMILES. pIC50: −log10 of the molar value. Entries after “also recorded” stand apart in the source; their conditions may differ.

The term pIC50 denotes the IC50 on a negative log10 scale, so that one unit is a factor of ten.

For `O=C(O)CCCc1nc(-c2ccc(Cl)c(Cl)c2)c(-c2ccccc2)o1` [22b, 4-(4-(3,4-Dichlorophenyl)-5-phenyloxazol-2-yl)butanoic Acid], the mode of inhibition result (on full-length human sEH; in data set [3]) was “competitive inhibitor” each time. In data set [1], the “inhibitory potency toward sEH-P (SAR statement in words)” value is “further improved the inhibitory activity”. The “LXRα transactivation of the reference agonist” value on LXRα is “inactive at 10 μM”. In addition, the “stabilization of the N-terminal domain in DSF” value in data set [2] was “stabilized; also recorded: able to stabilize”. Further, the “FXR transactivation of the reference agonist” value on FXR is “inactive at 10 μM”. Moreover, the “PPARα transactivation of the reference agonist” value on PPARα was “inactive at 10 μM”. Further, the “ratio of main epoxy fatty acids to their respective diols” value in the data set with sEH-H is on record as “did not influence”. Also, at LXRβ, the “LXRβ transactivation of the reference agonist” value was “inactive at 10 μM”. Moreover, the “stabilization of the C-terminal domain in DSF” value in data set [4] was “did not stabilize”. In data set [5], this compound gave a maximum plasma concentration of 48 µg/mL. In addition, on PPARβ/δ, the “PPARβ/δ transactivation of the reference agonist” value was “inactive at 10 μM”. Also, the negative-log IC50 (pIC50) in data set [6] was roughly 5.05.
`O=C(O)CCc1nc(-c2ccccc2)c(-c2ccccc2)o1` [compound 5, oxaprozin, reference compound]: at LXRα, the “LXRα transactivation of the reference agonist” value is “inactive at 10 μM”. Also, the “PPARα transactivation of the reference agonist” value at PPARα was “inactive at 10 μM”. Besides, the “PPARγ transactivation of the reference agonist” value at PPARγ was “inactive at 10 μM”. Moreover, the “LXRβ transactivation of the reference agonist” value on LXRβ was “inactive at 10 μM”. For the same compound, the “PPARβ/δ transactivation of the reference agonist” value on PPARβ/δ is “inactive at 10 μM”.

These data come from article PMC7262789 (Journal of medicinal chemistry, 2019).
